Data reported in ChEMBL document CHEMBL5723584 (2023).

Columns and labels:
[1] = target: Serine/threonine-protein kinase haspin (Homo sapiens) (UniProt Q8TF76); experiment: activity of Haspin(h) at 1.0 µM in the Eurofins Kinase panel; conditions: Compound concentration 1.0 uM
[2] = target: cAMP-dependent protein kinase catalytic subunit beta (Homo sapiens) (UniProt P22694); experiment: activity of PKACbeta(h) at 1.0 µM in the Eurofins Kinase panel; conditions: Compound concentration 1.0 uM
[3] = target: Serine/threonine-protein kinase Sgk2 (Homo sapiens) (UniProt Q9HBY8); experiment: activity of SGK2(h) at 1.0 µM in the Eurofins Kinase panel; conditions: Compound concentration 1.0 uM
[4] = target: Mitogen-activated protein kinase 1 (Homo sapiens) (UniProt P28482); experiment: activity of MAPK1(h) at 1.0 µM in the Eurofins Kinase panel; conditions: Compound concentration 1.0 uM
[5] = target: 3-phosphoinositide-dependent protein kinase 1 (Homo sapiens) (UniProt O15530); experiment: activity of PDK1(h) at 1.0 µM in the Eurofins Kinase panel; conditions: Compound concentration 1.0 uM
[6] = target: [Pyruvate dehydrogenase (acetyl-transferring)] kinase isozyme 2, mitochondrial (Homo sapiens) (UniProt Q15119); experiment: activity of PDHK2(h) at 1.0 µM in the Eurofins Kinase panel; conditions: Compound concentration 1.0 uM
[7] = target: Dual specificity tyrosine-phosphorylation-regulated kinase 1A (Homo sapiens) (UniProt Q13627); experiment: activity of DYRK1A(h) at 1.0 µM in the Eurofins Kinase panel; conditions: Compound concentration 1.0 uM
[8] = target: Mitogen-activated protein kinase kinase kinase kinase 3 (Homo sapiens) (UniProt Q8IVH8); experiment: activity of MAP4K3(h) at 1.0 µM in the Eurofins Kinase panel; conditions: Compound concentration 1.0 uM
[9] = target: Mitogen-activated protein kinase kinase kinase 11 (Homo sapiens) (UniProt Q16584); experiment: activity of MLK3(h) at 1.0 µM in the Eurofins Kinase panel; conditions: Compound concentration 1.0 uM
[10] = target: Mitogen-activated protein kinase kinase kinase kinase 4 (Homo sapiens) (UniProt O95819); experiment: activity of MAP4K4(h) at 1.0 µM in the Eurofins Kinase panel; conditions: Compound concentration 1.0 uM
[11] = target: ATR/ATRIP (Homo sapiens) (UniProt Q13535+Q8WXE1); experiment: activity of ATR/ATRIP(h) at 1.0 µM in the Eurofins Kinase panel; assay type: protein-complex assay; conditions: Compound concentration 1.0 uM
[12] = target: Receptor-interacting serine/threonine-protein kinase 2 (Homo sapiens) (UniProt O43353); experiment: activity of RIPK2(h) at 1.0 µM in the Eurofins Kinase panel; conditions: Compound concentration 1.0 uM
[13] = target: Eukaryotic translation initiation factor 2-alpha kinase 3 (Homo sapiens) (UniProt Q9NZJ5); experiment: activity of PEK(h) at 1.0 µM in the Eurofins Kinase panel; conditions: Compound concentration 1.0 uM
[14] = target: Death-associated protein kinase 2 (Homo sapiens) (UniProt Q9UIK4); experiment: activity of DAPK2(h) at 1.0 µM in the Eurofins Kinase panel; conditions: Compound concentration 1.0 uM
[15] = target: MAP kinase-interacting serine/threonine-protein kinase 2 (Homo sapiens, UniProt Q9HBH9); experiment: Promega NanoBRET (MKNK2)
[16] = target: Tyrosine-protein kinase JAK3 (Homo sapiens) (UniProt P52333); experiment: activity of JAK3(h) at 1.0 µM in the Eurofins Kinase panel; conditions: Compound concentration 1.0 uM
[17] = target: Serine/threonine-protein kinase MAK (Homo sapiens) (UniProt P20794); experiment: activity of MAK(h) at 1.0 µM in the Eurofins Kinase panel; conditions: Compound concentration 1.0 uM
[18] = target: Cyclin-dependent kinase 1/cyclin B (Homo sapiens) (UniProt P06493+P14635+Q8WWL7+O95067); experiment: activity of CDK1/cyclinB(h) at 1.0 µM in the Eurofins Kinase panel; assay type: protein-complex assay; conditions: Compound concentration 1.0 uM
[19] = target: Calcium/calmodulin-dependent protein kinase type II subunit gamma (Homo sapiens) (UniProt Q13555); experiment: activity of CaMKIIgamma(h) at 1.0 µM in the Eurofins Kinase panel; conditions: Compound concentration 1.0 uM
[20] = target: Tyrosine-protein kinase JAK1 (Homo sapiens) (UniProt P23458); experiment: activity of JAK1(h) at 1.0 µM in the Eurofins Kinase panel; conditions: Compound concentration 1.0 uM
[21] = target: Serine/threonine-protein kinase Sgk1 (Homo sapiens) (UniProt O00141); experiment: activity of SGK(h) at 1.0 µM in the Eurofins Kinase panel; conditions: Compound concentration 1.0 uM
[22] = target: Dual specificity tyrosine-phosphorylation-regulated kinase 2 (Homo sapiens) (UniProt Q92630); experiment: activity of DYRK2(h) at 1.0 µM in the Eurofins Kinase panel; conditions: Compound concentration 1.0 uM
[23] = target: cGMP-dependent protein kinase 1 (Homo sapiens) (UniProt Q13976); experiment: activity of PKG1beta(h) at 1.0 µM in the Eurofins Kinase panel; conditions: Compound concentration 1.0 uM
[24] = target: Serine/threonine-protein kinase Nek4 (Homo sapiens) (UniProt P51957); experiment: activity of NEK4(h) at 1.0 µM in the Eurofins Kinase panel; conditions: Compound concentration 1.0 uM
[25] = target: Dual specificity tyrosine-phosphorylation-regulated kinase 3 (Homo sapiens) (UniProt O43781); experiment: activity of DYRK3(h) at 1.0 µM in the Eurofins Kinase panel; conditions: Compound concentration 1.0 uM
[26] = target: Serine/threonine-protein kinase WNK2 (Homo sapiens) (UniProt Q9Y3S1); experiment: activity of WNK2(h) at 1.0 µM in the Eurofins Kinase panel; conditions: Compound concentration 1.0 uM
[27] = target: Interleukin-1 receptor-associated kinase 4 (Homo sapiens) (UniProt Q9NWZ3); experiment: activity of IRAK4(h) at 1.0 µM in the Eurofins Kinase panel; conditions: Compound concentration 1.0 uM
[28] = target: Cyclin-dependent kinase 13/Cyclin-K (Homo sapiens) (UniProt Q14004+O75909); experiment: activity of CDK13/cyclinK(h) at 1.0 µM in the Eurofins Kinase panel; assay type: protein-complex assay; conditions: Compound concentration 1.0 uM
[29] = target: eIF-2-alpha kinase GCN2 (Homo sapiens) (UniProt Q9P2K8); experiment: activity of GCN2(h) at 1.0 µM in the Eurofins Kinase panel; conditions: Compound concentration 1.0 uM
[30] = target: Casein kinase 2 (Homo sapiens) (UniProt P67870+P68400+P19784+Q8NEV1); experiment: activity of CK2(h) at 1.0 µM in the Eurofins Kinase panel; assay type: protein assay; conditions: Compound concentration 1.0 uM
[31] = target: Myotonin-protein kinase (Homo sapiens) (UniProt Q09013); experiment: activity of DMPK(h) at 1.0 µM in the Eurofins Kinase panel; conditions: Compound concentration 1.0 uM
[32] = target: Non-receptor tyrosine-protein kinase TYK2 (Homo sapiens) (UniProt P29597); experiment: activity of TYK2(h) at 1.0 µM in the Eurofins Kinase panel; conditions: Compound concentration 1.0 uM
[33] = target: Protein kinase C theta type (Homo sapiens) (UniProt Q04759); experiment: activity of PKCtheta(h) at 1.0 µM in the Eurofins Kinase panel; conditions: Compound concentration 1.0 uM
[34] = target: Epidermal growth factor receptor (Homo sapiens) (UniProt P00533); experiment: activity of EGFR(h) at 1.0 µM in the Eurofins Kinase panel; conditions: Compound concentration 1.0 uM
[35] = target: Ribosomal protein S6 kinase beta-1 (Homo sapiens) (UniProt P23443); experiment: activity of p70S6K(h) at 1.0 µM in the Eurofins Kinase panel; conditions: Compound concentration 1.0 uM
[36] = target: Protein-tyrosine kinase 2-beta (Homo sapiens) (UniProt Q14289); experiment: activity of Pyk2(h) at 1.0 µM in the Eurofins Kinase panel; conditions: Compound concentration 1.0 uM
[37] = target: Tyrosine-protein kinase Blk (Homo sapiens) (UniProt P51451); experiment: activity of Blk(h) at 1.0 µM in the Eurofins Kinase panel; conditions: Compound concentration 1.0 uM
[38] = target: Serine/threonine-protein kinase 3 (Homo sapiens) (UniProt Q13188); experiment: activity of MST2(h) at 1.0 µM in the Eurofins Kinase panel; conditions: Compound concentration 1.0 uM

Chain of Serine/threonine-protein kinase Nek4 (Homo sapiens) (P51957 whole entry, looked up): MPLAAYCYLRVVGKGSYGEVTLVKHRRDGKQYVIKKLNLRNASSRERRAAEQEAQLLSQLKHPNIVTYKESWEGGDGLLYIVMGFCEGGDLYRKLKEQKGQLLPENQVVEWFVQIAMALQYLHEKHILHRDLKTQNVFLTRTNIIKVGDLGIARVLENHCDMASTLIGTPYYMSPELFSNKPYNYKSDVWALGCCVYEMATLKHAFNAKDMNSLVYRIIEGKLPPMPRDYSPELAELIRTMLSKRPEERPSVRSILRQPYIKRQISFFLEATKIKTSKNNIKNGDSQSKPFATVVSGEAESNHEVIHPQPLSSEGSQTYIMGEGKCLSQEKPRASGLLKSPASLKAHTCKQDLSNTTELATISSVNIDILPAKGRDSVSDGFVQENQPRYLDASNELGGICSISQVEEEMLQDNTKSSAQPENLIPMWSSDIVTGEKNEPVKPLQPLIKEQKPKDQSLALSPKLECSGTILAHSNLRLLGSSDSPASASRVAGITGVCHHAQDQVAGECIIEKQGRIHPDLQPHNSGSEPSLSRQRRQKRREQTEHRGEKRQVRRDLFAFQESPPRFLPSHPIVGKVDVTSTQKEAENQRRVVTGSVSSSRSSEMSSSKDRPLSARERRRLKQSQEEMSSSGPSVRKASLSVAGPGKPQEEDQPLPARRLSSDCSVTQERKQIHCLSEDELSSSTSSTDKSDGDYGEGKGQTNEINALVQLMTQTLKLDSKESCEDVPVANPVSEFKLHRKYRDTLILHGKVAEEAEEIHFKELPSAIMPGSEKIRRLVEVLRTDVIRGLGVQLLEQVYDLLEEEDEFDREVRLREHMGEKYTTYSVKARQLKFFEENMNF
Chain of Mitogen-activated protein kinase 1 (Homo sapiens) (P28482 whole entry): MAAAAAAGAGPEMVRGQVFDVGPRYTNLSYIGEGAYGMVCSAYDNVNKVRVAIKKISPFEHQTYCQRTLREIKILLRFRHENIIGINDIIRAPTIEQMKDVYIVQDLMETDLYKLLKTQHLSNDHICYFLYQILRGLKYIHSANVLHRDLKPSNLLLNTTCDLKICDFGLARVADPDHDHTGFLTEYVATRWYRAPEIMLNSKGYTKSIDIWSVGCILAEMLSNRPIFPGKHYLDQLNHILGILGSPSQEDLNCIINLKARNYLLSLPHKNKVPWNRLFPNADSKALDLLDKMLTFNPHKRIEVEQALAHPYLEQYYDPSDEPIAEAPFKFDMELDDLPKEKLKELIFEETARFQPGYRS
Chain of Death-associated protein kinase 2 (Homo sapiens) (Q9UIK4 whole entry, looked up): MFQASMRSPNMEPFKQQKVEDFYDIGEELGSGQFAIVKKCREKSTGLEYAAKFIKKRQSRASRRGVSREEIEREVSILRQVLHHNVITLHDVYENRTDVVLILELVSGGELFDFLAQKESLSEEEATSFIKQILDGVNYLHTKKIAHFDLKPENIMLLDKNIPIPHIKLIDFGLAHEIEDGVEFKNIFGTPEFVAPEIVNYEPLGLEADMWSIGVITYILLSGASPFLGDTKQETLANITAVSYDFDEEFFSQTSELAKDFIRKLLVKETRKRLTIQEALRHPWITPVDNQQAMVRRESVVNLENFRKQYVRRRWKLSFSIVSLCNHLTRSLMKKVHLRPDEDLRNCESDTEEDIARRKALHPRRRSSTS
Chain of Serine/threonine-protein kinase haspin (Homo sapiens) (Q8TF76 whole entry): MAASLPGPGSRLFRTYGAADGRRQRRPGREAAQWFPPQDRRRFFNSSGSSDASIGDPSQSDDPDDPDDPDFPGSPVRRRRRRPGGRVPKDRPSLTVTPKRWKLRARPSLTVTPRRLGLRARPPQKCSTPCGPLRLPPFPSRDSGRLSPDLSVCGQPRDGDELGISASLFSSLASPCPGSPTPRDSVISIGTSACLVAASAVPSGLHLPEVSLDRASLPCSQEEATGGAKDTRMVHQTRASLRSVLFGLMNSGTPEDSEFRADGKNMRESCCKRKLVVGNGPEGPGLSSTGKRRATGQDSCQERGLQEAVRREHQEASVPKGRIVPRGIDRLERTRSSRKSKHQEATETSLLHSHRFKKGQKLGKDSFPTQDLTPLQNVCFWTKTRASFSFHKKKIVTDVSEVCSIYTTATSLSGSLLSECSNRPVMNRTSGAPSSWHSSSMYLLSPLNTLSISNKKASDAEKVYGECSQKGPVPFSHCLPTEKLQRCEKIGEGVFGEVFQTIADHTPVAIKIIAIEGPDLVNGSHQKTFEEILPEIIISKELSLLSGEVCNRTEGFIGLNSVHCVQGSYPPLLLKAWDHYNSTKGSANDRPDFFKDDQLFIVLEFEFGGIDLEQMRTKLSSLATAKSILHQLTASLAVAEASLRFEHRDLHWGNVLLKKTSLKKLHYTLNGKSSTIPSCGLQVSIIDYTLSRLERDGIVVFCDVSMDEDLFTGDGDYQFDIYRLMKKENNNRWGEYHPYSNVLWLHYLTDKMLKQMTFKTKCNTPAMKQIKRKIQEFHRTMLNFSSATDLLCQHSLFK
Chain of Mitogen-activated protein kinase kinase kinase 11 (Homo sapiens) (Q16584 whole entry, looked up): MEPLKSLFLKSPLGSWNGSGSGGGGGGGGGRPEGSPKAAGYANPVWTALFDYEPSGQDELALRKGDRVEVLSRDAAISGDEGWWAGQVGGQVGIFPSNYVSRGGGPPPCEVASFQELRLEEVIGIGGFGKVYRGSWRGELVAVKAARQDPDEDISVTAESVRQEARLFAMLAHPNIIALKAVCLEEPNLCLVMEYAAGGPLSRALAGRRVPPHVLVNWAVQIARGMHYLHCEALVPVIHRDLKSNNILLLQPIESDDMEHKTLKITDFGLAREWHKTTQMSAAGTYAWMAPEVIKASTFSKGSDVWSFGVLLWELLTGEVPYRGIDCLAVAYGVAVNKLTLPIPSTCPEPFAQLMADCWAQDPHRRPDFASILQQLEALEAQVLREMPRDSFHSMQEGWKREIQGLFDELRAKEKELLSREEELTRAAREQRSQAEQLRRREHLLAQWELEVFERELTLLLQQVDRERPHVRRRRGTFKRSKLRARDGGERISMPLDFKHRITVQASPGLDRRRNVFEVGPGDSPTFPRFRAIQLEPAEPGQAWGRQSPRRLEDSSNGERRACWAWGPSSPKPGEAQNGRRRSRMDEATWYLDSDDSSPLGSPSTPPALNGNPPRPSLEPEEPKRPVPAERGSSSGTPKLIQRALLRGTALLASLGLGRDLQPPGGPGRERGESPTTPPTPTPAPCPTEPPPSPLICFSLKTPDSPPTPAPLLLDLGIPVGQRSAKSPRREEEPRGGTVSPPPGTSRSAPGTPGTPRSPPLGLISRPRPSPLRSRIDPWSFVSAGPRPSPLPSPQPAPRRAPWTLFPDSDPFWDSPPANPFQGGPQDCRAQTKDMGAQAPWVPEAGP
Chain of Serine/threonine-protein kinase Sgk1 (Homo sapiens) (O00141 whole entry): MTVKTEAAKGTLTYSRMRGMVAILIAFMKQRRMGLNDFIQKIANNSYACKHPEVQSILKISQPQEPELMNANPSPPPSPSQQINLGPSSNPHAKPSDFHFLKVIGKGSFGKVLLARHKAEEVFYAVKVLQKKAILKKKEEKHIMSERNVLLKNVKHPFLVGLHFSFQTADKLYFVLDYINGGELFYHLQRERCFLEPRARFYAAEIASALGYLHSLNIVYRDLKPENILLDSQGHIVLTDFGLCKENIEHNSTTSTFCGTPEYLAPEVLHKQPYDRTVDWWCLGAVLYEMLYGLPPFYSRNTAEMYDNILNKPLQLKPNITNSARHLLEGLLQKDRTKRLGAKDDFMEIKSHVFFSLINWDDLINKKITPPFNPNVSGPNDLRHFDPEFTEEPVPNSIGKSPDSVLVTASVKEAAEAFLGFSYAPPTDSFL
Chain of Mitogen-activated protein kinase kinase kinase kinase 4 (Homo sapiens) (O95819 2-1239 limits assumed): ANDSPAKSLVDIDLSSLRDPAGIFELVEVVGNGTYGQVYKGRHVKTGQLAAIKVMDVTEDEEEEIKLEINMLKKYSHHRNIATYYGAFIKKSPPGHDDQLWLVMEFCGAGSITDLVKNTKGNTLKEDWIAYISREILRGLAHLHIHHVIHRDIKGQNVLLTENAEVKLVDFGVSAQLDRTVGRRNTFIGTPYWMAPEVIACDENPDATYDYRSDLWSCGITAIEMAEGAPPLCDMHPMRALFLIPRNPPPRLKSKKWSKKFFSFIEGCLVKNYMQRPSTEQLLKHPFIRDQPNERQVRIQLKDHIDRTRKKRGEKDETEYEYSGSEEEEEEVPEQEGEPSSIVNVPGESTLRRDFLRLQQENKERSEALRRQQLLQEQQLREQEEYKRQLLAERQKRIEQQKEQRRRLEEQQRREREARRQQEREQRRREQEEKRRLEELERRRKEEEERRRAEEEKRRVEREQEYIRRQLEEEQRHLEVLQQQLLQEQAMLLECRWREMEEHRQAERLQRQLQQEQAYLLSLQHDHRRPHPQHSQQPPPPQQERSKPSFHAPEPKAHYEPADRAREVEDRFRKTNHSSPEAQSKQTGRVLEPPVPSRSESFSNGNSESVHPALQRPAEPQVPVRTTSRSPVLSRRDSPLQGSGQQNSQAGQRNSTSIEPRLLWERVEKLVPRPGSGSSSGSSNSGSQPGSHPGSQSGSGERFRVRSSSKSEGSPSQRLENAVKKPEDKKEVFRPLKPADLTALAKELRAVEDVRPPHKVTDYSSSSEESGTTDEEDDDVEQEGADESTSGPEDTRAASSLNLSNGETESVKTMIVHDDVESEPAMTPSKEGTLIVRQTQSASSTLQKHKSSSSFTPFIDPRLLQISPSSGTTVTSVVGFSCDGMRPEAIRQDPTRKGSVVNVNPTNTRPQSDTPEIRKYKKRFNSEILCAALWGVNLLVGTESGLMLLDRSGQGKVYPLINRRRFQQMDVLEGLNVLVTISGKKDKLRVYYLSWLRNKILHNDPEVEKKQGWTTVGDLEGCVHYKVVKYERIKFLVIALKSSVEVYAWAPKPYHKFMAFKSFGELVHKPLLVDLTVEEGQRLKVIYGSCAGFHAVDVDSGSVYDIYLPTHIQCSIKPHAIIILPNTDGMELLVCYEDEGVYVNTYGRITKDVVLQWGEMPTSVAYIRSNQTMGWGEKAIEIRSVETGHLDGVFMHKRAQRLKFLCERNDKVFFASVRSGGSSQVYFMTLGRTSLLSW

activity [1]: 140%
activity [2]: 121%
activity [3]: 82%
activity [4]: 95%
activity [5]: 105%
activity [6]: 87%
activity [7]: 112%
activity [8]: 109%
activity [9]: 91%
activity [10]: 101%
activity [11]: 110%
activity [12]: 97%
activity [13]: 91%
IC50 [15]: 5.5 µM (not active)
activity [16]: 106%
activity [17]: 120%
activity [18]: 94%
activity [19]: 106%
activity [20]: 85%
activity [21]: 113%
activity [22]: 101%
activity [23]: 92%
activity [24]: 90%
activity [25]: 99%
activity [26]: 94%
activity [27]: 90%
activity [28]: 99%
activity [29]: 101%
activity [30]: 112%
activity [31]: 93%
activity [32]: 103%
activity [33]: 103%
activity [34]: 107%
activity [35]: 93%
activity [36]: 76%
activity [37]: 88%
activity [38]: 106%
SMILES: Cc1cc2c(-c3ccc(NC(=O)[C@H](N)CC(C)(C)C)cc3C)ccnc2[nH]1
activity [14]: 109%
